Assay results reported in patent EP4603105A1, “PHARMACEUTICAL COMPOSITION CONTAINING CYCLIC COMPOUND HAVING SELECTIVE KRAS INHIBITORY EFFECT AGAINST HRAS AND NRAS” (CHUGAI SEIYAKU KABUSHIKI KAISHA, priority 2022, dated 2024).

Columns and labels:
[1] = target: GDP-bound KRAS wild-type protein (Homo sapiens, UniProt P01116); experiment: Binding to KRAS by surface plasmon resonance (SPR), dissociation constant KD; conditions: 1:1 binding model
Method in brief: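 SPR, 30°C: Avi-biotin RAS·GDP captured via Biotin CAPture (~100–300 RU); running buffer HBS pH 7.4, 1 mM DTT, 10 mM MgCl2, 0.01% Tween 20, 10 µM GDP, 4% DMSO. Single-cycle kinetics, 100 µL/min, 75 s injections; 1:1 model → KD.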

[2] = target: GDP-bound NRAS wild-type protein (Homo sapiens, UniProt P01111); experiment: Binding to NRAS by surface plasmon resonance (SPR), KD and KD ratio to KRAS; conditions: ratio of KD for GDP-bound NRAS wild-type protein to KD for KRAS
Method in brief: (§1)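 Running buffer contained 10 µM GDP and 10 mM MgCl2 to keep RAS in the GDP state, with 4% DMSO at pH 7.4. Compounds were flowed at 100 µL/min in 75 s steps of rising concentration over captured biotin-Avi RAS at 30°C. Sensorgrams were fitted 1:1 for KD.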

[3] = system: human lung cancer strain NCI-H441; type: cell-based
Method in brief: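 Step one: dispense the test compound in serial DMSO dilutions. Step three: add the reagent and measure […].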

HRAS wild-type protein = HRAS wild-type protein (Homo sapiens, UniProt P01112); experiment: Binding to HRAS by surface plasmon resonance (SPR), KD and KD ratio to KRAS; conditions: ratio of KD for HRAS wild-type protein to KD for KRAS
Method in brief: as §1

Chain of HRAS wild-type protein (P01112 whole entry): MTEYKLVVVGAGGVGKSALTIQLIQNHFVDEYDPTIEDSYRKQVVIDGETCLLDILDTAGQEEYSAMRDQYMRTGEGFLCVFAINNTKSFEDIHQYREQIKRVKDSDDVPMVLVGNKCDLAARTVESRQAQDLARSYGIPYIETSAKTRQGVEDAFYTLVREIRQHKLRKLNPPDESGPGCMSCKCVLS
Chain of GDP-bound NRAS wild-type protein (P01111 whole entry): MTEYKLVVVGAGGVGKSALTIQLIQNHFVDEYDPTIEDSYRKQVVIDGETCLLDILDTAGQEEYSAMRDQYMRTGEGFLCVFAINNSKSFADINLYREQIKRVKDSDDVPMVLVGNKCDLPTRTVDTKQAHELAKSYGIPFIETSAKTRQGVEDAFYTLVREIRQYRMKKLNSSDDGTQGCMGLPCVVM
Chain of GDP-bound KRAS wild-type protein (P01116 1-188 isoform P01116-2): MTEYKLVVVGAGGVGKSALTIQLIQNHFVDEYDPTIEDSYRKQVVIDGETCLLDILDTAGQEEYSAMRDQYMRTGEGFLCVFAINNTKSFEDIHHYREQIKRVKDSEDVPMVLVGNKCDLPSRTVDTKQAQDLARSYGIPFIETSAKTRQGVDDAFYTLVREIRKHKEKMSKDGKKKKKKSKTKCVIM

CCO[C@@H]1C[C@H]2C(=O)NC3(CC(C)(C)C3)C(=O)N(C)[C@@H](C3CCCC3)C(=O)N(C)[C@H](C(=O)N(C)CC)CC(=O)N(C)[C@@H](CC(C)C)C(=O)N[C@@H]([C@@H](C)CC)C(=O)N(C)CC(=O)N(C)[C@H]3C/C=C\CCN(C3=O)[C@@H](Cc3ccc(C(F)F)cc3)C(=O)N(C)CC(=O)N[C@@H](CCc3cc(F)c(Cl)c(OC)c3)C(=O)N2C1 [PP3142]
Kd [1]: 0.00044 µM
NRAS /KRAS [2]: A (a compound having 10 or more and less than 20 is denoted as A)
IC50 [3]: 0.0393 µM
HRAS /KRAS (HRAS wild-type protein): A (a compound having 10 or more and less than 20 is denoted as A)

CCO[C@@H]1C[C@H]2C(=O)NC3(CC(C)(C)C3)C(=O)N(C)[C@@H](C3CCCC3)C(=O)N(C)[C@H](C(=O)N(C)CC)CC(=O)N(C)[C@@H](CC(C)C)C(=O)N[C@@H]([C@@H](C)CC)C(=O)N(C)CC(=O)N(C)[C@H]3C/C=C\CCN(C3=O)[C@@H](Cc3ccc(C(F)F)cc3)C(=O)N(C)CC(=O)N[C@@H](CCc3cc(F)c(CC)c(OC)c3)C(=O)N2C1 [PP3143]
Kd [1]: 0.00066 µM
NRAS /KRAS [2]: A (a compound having 10 or more and less than 20 is denoted as A)
IC50 [3]: 0.041 µM
HRAS /KRAS (HRAS wild-type protein): A (a compound having 10 or more and less than 20 is denoted as A)

CCO[C@@H]1C[C@H]2C(=O)NC3(CC(C)(C)C3)C(=O)N(C)[C@@H](C3CCCC3)C(=O)N(C)[C@H](C(=O)N(C)CC)CC(=O)N(C)[C@@H](CC(C)C)C(=O)N[C@@H]([C@@H](C)CC)C(=O)N(C)CC(=O)N(C)[C@H]3C/C=C\CCN(C3=O)[C@@H](Cc3ccc(C(F)F)cc3)C(=O)N(C)CC(=O)N[C@@H](CCc3cc(C)c(C(F)F)c(C)c3)C(=O)N2C1 [PP3144]
Kd [1]: 0.0043 µM
NRAS /KRAS [2]: A (a compound having 10 or more and less than 20 is denoted as A)
IC50 [3]: 0.0727 µM
HRAS /KRAS (HRAS wild-type protein): A (a compound having 10 or more and less than 20 is denoted as A)

CCO[C@@H]1C[C@H]2C(=O)NC3(CC(C)(C)C3)C(=O)N(C)[C@@H](C3CCCC3)C(=O)N(C)[C@H](C(=O)N(C)CC)CC(=O)N(C)[C@@H](CC(C)C)C(=O)N[C@@H]([C@@H](C)CC)C(=O)N(C)CC(=O)N(C)[C@H]3C/C=C\CCN(C3=O)[C@@H](Cc3ccc(C(F)F)cc3)C(=O)N(C)CC(=O)N[C@@H](CCc3cc(C)c(C(F)F)c(F)c3)C(=O)N2C1 [PP3145]
Kd [1]: 0.00069 µM
NRAS /KRAS [2]: A (a compound having 10 or more and less than 20 is denoted as A)
IC50 [3]: 0.0299 µM
HRAS /KRAS (HRAS wild-type protein): A (a compound having 10 or more and less than 20 is denoted as A)

CCO[C@@H]1C[C@H]2C(=O)NC3(CC(C)(C)C3)C(=O)N(C)[C@@H](C3CCCC3)C(=O)N(C)[C@H](C(=O)N(C)CC)CC(=O)N(C)[C@@H](CC(C)C)C(=O)N[C@@H]([C@@H](C)CC)C(=O)N(C)CC(=O)N(C)[C@H]3C/C=C\CCN(C3=O)[C@@H](Cc3ccc(C(F)F)cc3)C(=O)N(C)CC(=O)N[C@@H](CCc3cc(C)c(C(F)F)c(Cl)c3)C(=O)N2C1 [PP3146]
Kd [1]: 0.0014 µM
NRAS /KRAS [2]: A (a compound having 10 or more and less than 20 is denoted as A)
IC50 [3]: 0.0418 µM
HRAS /KRAS (HRAS wild-type protein): A (a compound having 10 or more and less than 20 is denoted as A)

CCO[C@@H]1C[C@H]2C(=O)NC3(CC(C)(C)C3)C(=O)N(C)[C@@H](C3CCCC3)C(=O)N(C)[C@H](C(=O)N(C)CC)CC(=O)N(C)[C@@H](CC(C)C)C(=O)N[C@@H]([C@@H](C)CC)C(=O)N(C)CC(=O)N(C)[C@H]3C/C=C\CCN(C3=O)[C@@H](Cc3ccc(C(F)F)cc3)C(=O)N(C)CC(=O)N[C@@H](CCc3cc(F)c(C(F)F)c(OC)c3)C(=O)N2C1 [PP3147]
Kd [1]: 0.00041 µM
NRAS /KRAS [2]: A (a compound having 10 or more and less than 20 is denoted as A)
IC50 [3]: 0.0546 µM
HRAS /KRAS (HRAS wild-type protein): A (a compound having 10 or more and less than 20 is denoted as A)

CCO[C@@H]1C[C@H]2C(=O)NC3(CC(C)(C)C3)C(=O)N(C)[C@@H](C3CCCC3)C(=O)N(C)[C@H](C(=O)N(C)CC)CC(=O)N(C)[C@@H](CC(C)C)C(=O)N[C@@H]([C@@H](C)CC)C(=O)N(C)CC(=O)N(C)[C@H]3C/C=C\CCN(C3=O)[C@@H](Cc3ccc(C(F)F)cc3)C(=O)N(C)CC(=O)N[C@@H](CCc3cc(C)c(C4CC4)c(C)c3)C(=O)N2C1 [PP3148]
Kd [1]: 0.0024 µM
NRAS /KRAS [2]: A (a compound having 10 or more and less than 20 is denoted as A)
IC50 [3]: 0.0759 µM
HRAS /KRAS (HRAS wild-type protein): A (a compound having 10 or more and less than 20 is denoted as A)

CCO[C@@H]1C[C@H]2C(=O)NC3(CC(C)(C)C3)C(=O)N(C)[C@@H](C3CCCC3)C(=O)N(C)[C@H](C(=O)N(C)CC)CC(=O)N(C)[C@@H](CC(C)C)C(=O)N[C@@H]([C@@H](C)CC)C(=O)N(C)CC(=O)N(C)[C@H]3C/C=C\CCN(C3=O)[C@@H](Cc3ccc(C(F)F)cc3)C(=O)N(C)CC(=O)N[C@@H](CCc3cc(F)c4c(c3)CCC4)C(=O)N2C1 [PP3149]
Kd [1]: 0.00084 µM
NRAS /KRAS [2]: A (a compound having 10 or more and less than 20 is denoted as A)
IC50 [3]: 0.0564 µM
HRAS /KRAS (HRAS wild-type protein): A (a compound having 10 or more and less than 20 is denoted as A)

CCO[C@@H]1C[C@H]2C(=O)NC3(CC(C)(C)C3)C(=O)N(C)[C@@H](C3CCCC3)C(=O)N(C)[C@H](C(=O)N(C)CC)CC(=O)N(C)[C@@H](CC(C)C)C(=O)N[C@@H]([C@@H](C)CC)C(=O)N(C)CC(=O)N(C)[C@H]3C/C=C\CCN(C3=O)[C@@H](Cc3ccc(C(F)F)cc3)C(=O)N(C)CC(=O)N[C@@H](CCc3cc(F)c4c(c3)OCC4)C(=O)N2C1 [PP3150]
Kd [1]: 0.0029 µM
NRAS /KRAS [2]: A (a compound having 10 or more and less than 20 is denoted as A)
IC50 [3]: 0.191 µM
HRAS /KRAS (HRAS wild-type protein): A (a compound having 10 or more and less than 20 is denoted as A)

CCO[C@@H]1C[C@H]2C(=O)NC3(CC(C)(C)C3)C(=O)N(C)[C@@H](C3CCCC3)C(=O)N(C)[C@H](C(=O)N(C)CC)CC(=O)N(C)[C@@H](CC(C)C)C(=O)N[C@@H]([C@@H](C)CC)C(=O)N(C)CC(=O)N(C)[C@H]3C/C=C\CCN(C3=O)[C@@H](Cc3ccc(C(F)F)cc3)C(=O)N(C)CC(=O)N[C@@H](CCc3ccc(C(F)(F)F)c(C4CC4)c3)C(=O)N2C1 [PP3151]
Kd [1]: 0.00023 µM
NRAS /KRAS [2]: A (a compound having 10 or more and less than 20 is denoted as A)
IC50 [3]: 0.0186 µM
HRAS /KRAS (HRAS wild-type protein): A (a compound having 10 or more and less than 20 is denoted as A)

CCO[C@@H]1C[C@H]2C(=O)NC3(CC(C)(C)C3)C(=O)N(C)[C@@H](C3CCCC3)C(=O)N(C)[C@H](C(=O)N(C)CC)CC(=O)N(C)[C@@H](CC(C)C)C(=O)N[C@@H]([C@@H](C)CC)C(=O)N(C)CC(=O)N(C)[C@H]3C/C=C\CCN(C3=O)[C@@H](Cc3ccc(C(F)F)cc3)C(=O)N(C)CC(=O)N[C@@H](CCc3ccc4c(c3)CCC4(F)F)C(=O)N2C1 [PP3152]
Kd [1]: 0.002 µM
NRAS /KRAS [2]: AA (a compound having 20 or more is denoted as AA)
IC50 [3]: 0.62 µM
HRAS /KRAS (HRAS wild-type protein): A (a compound having 10 or more and less than 20 is denoted as A)

CCO[C@@H]1C[C@H]2C(=O)NC3(CC(C)(C)C3)C(=O)N(C)[C@@H](C3CCCC3)C(=O)N(C)[C@H](C(=O)N(C)CC)CC(=O)N(C)[C@@H](CC(C)C)C(=O)N[C@@H]([C@@H](C)CC)C(=O)N(C)CC(=O)N(C)[C@H]3C/C=C\CCN(C3=O)[C@@H](Cc3ccc(C(F)F)cc3)C(=O)N(C)CC(=O)N[C@@H](CCc3ccc(C4CC4)c(OC)c3)C(=O)N2C1 [PP3153]
Kd [1]: 0.0014 µM
NRAS /KRAS [2]: A (a compound having 10 or more and less than 20 is denoted as A)
IC50 [3]: 0.0287 µM
HRAS /KRAS (HRAS wild-type protein): A (a compound having 10 or more and less than 20 is denoted as A)

CCO[C@@H]1C[C@H]2C(=O)NC3(CC(C)(C)C3)C(=O)N(C)[C@@H](C3CCCC3)C(=O)N(C)[C@H](C(=O)N(C)CC)CC(=O)N(C)[C@@H](CC(C)C)C(=O)N[C@@H]([C@@H](C)CC)C(=O)N(C)CC(=O)N(C)[C@H]3C/C=C\CCN(C3=O)[C@@H](Cc3ccc(C(F)F)cc3)C(=O)N(C)CC(=O)N[C@@H](CCc3ccc(C4CC4)c(F)c3)C(=O)N2C1 [PP3154]
Kd [1]: 0.00053 µM
NRAS /KRAS [2]: A (a compound having 10 or more and less than 20 is denoted as A)
IC50 [3]: 0.0262 µM
HRAS /KRAS (HRAS wild-type protein): A (a compound having 10 or more and less than 20 is denoted as A)

CCO[C@@H]1C[C@H]2C(=O)NC3(CC(C)(C)C3)C(=O)N(C)[C@@H](C3CCCC3)C(=O)N(C)[C@H](C(=O)N(C)CC)CC(=O)N(C)[C@@H](CC(C)C)C(=O)N[C@@H]([C@@H](C)CC)C(=O)N(C)CC(=O)N(C)[C@H]3C/C=C\CCN(C3=O)[C@@H](Cc3ccc(C(F)F)cc3)C(=O)N(C)CC(=O)N[C@@H](CCc3ccc(C4CC4)c(Cl)c3)C(=O)N2C1 [PP3155]
Kd [1]: 0.00064 µM
NRAS /KRAS [2]: A (a compound having 10 or more and less than 20 is denoted as A)
IC50 [3]: 0.0625 µM
HRAS /KRAS (HRAS wild-type protein): A (a compound having 10 or more and less than 20 is denoted as A)
